Experimental data from ChEMBL document CHEMBL5647684, “Expression of Src and FAK in hepatocellular carcinoma and the effect of Src inhibitors on hepatocellular carcinoma in vitro” (2009).

Columns and labels:
Assay type in all cases: functional
PLC-PRF-5 = experiment: Growth inhibition of human PLC-PRF-5 cells after 3 days by MTT assay; settings: time 3 day
HepG2 = experiment: Growth inhibition of human HepG2 cells after 3 days by MTT assay; settings: time 3 day; for GI50: Homo sapiens, HepG2, 72 h
Huh-7 = experiment: Growth inhibition of human Huh-7 cells after 3 days by MTT assay; settings: time 3 day; for GI50: Homo sapiens, Huh-7, 72 h
Hep 3B2 = experiment: Growth inhibition of human Hep3B cells after 3 days by MTT assay; settings: time 3 day

GI50 (HepG2) [nM]	GI50 (Huh-7) [nM]	SMILES	GI50 (PLC-PRF-5; Homo sapiens, PLC-PRF-5, 72 h) [nM]	GI80 (PLC-PRF-5) [nM]	GI80 (HepG2) [nM]	GI80 (Huh-7) [nM]	GI50 (Hep 3B2; Homo sapiens, Hep3B, 72 h) [nM]	GI80 (Hep 3B2) [nM]
60	9	O=C(Cc1ccc(-c2ccc(OCCN3CCOCC3)cc2)cn1)NCc1ccccc1 [TIRBANIBULIN]	13	24	3658	23	26	88
> 50000	1970	Cc1nc(Nc2ncc(C(=O)Nc3c(C)cccc3Cl)s2)cc(N2CCN(CCO)CC2)n1 [DASATINIB ANHYDROUS]			>50000	7135		
